From US20080064668A1, “1,3-Diacylated, 26,27-Alkyl/Haloakyl Vitamin D3 Compounds and Methods of Use Thereof” (BioXell S.p.A., priority 2003, published 2008)
pIC50: −log10 of the molar value.

Tests used:
RT112 = assay: Proliferation assay using bladder cancer cell lines, RT112; format: cell-based, human; details: Homo sapiens, RT-112, 72 h, 72 h culture, CyQuant proliferation assay
Procedure: Bladder cancer cell lines (T24, RT112, HT1376 and RT4 are human bladder cancer cell lines; NHEK are normal human keratinocytes) were obtained from the European Collection of Cell Cultures (Salisbury, UK). Cells were plated at 3×10^3 per well, in flat bottomed 96-well plates in 100 μl of DMEM medium containing: 5% Fetal Clone I, 50 μg/l gentamicin, 1 mM sodium pyruvate and 1% non-essential amino acids. After culturing for 24 h at 37° C. in 5% CO2, to allow cells to adhere to the plates, VDR ligands (compounds (2), (4), (5) and other vitamin D3 analogs as shown in Table 4) were added at concentrations ranging from 100 μM to 0.3 μM in 100 μl of above-mentioned complete medium. After a further 72 h of culture, cell proliferation was measured using a fluorescence-based proliferation assay kit. (CyQuant Cell Proliferation Assay Kit, Molecular Probes, Eugene, Oreg., USA). The IC50 was calculated from the regression curve of the titration data.

non-obese (NOD)/Lt mice = assay: Inhibition of Type 1 Diabetes development by VDR ligand administration; format: in vivo; details: for mice diabetic by 27 weeks of age: vehicle controls about 70%
Procedure: The non-obese (NOD)/Lt mice used for the experiments were purchased from Charles River Laboratories (Calco, Italy). All mice were kept under specific pathogen-free conditions. Glucose levels in the tail venous blood were quantified using a EUROFlash (Lifescan, Issy les Moulineaux, France). A diagnosis of diabetes was after two sequential glucose measurements higher than 200 mg/dl.
(§1) 1,3-Di-O-acetyl-1,25-dihydroxy-16,23Z-diene-26,27-hexafluoro-19-nor-cholecalciferol (2) was dissolved in ethanol (1 mg/ml) and then diluted in miglyol 812. […]

NOD mouse body weight = format: in vivo, mice
Procedure: as §1

Which results are given for `CC(=O)OC1C/C(=C/C=C2\CCC[C@]3(C)C(C(C)C/C=C\C(O)(C(F)(F)F)C(F)(F)F)=CCC23)C[C@@H](OC(C)=O)C1` (stereo partly shown) [Compound (2), 1,3-Di-O-acetyl-1,25-dihydroxy-16,23Z-diene-26,27-hexafluoro-19-nor-cholecalciferol]?
pIC50 (RT112): 6.00; Percent Type 1 Diabetes Mellitus incidence (non-obese (NOD)/Lt mice; 0.1 ug/kg p.o., week 8): 2%; Percent Type 1 Diabetes Mellitus incidence (non-obese (NOD)/Lt mice; 0.1 ug/kg p.o., week 12): 2%; Percent Type 1 Diabetes Mellitus incidence (non-obese (NOD)/Lt mice; 0.1 ug/kg p.o., week 13): 2%; Percent Type 1 Diabetes Mellitus incidence (non-obese (NOD)/Lt mice; 0.1 ug/kg p.o., week 14): 2%; Percent Type 1 Diabetes Mellitus incidence (non-obese (NOD)/Lt mice; 0.1 ug/kg p.o., week 15): 2%; Percent Type 1 Diabetes Mellitus incidence (non-obese (NOD)/Lt mice; 0.1 ug/kg p.o., week 16): 2%; Percent Type 1 Diabetes Mellitus incidence (non-obese (NOD)/Lt mice; 0.1 ug/kg p.o., week 17): 10%; Percent Type 1 Diabetes Mellitus incidence (non-obese (NOD)/Lt mice; 0.1 ug/kg p.o., week 18): 10%; Percent Type 1 Diabetes Mellitus incidence (non-obese (NOD)/Lt mice; 0.1 ug/kg p.o., week 19): 10%; Percent Type 1 Diabetes Mellitus incidence (non-obese (NOD)/Lt mice; 0.1 ug/kg p.o., week 20): 10%; Percent Type 1 Diabetes Mellitus incidence (non-obese (NOD)/Lt mice; 0.1 ug/kg p.o., week 21): 20%; Percent Type 1 Diabetes Mellitus incidence (non-obese (NOD)/Lt mice; 0.1 ug/kg p.o., week 22): 30%; Percent Type 1 Diabetes Mellitus incidence (non-obese (NOD)/Lt mice; 0.1 ug/kg p.o., week 23): 30%; Percent Type 1 Diabetes Mellitus incidence (non-obese (NOD)/Lt mice; 0.1 ug/kg p.o., week 24): 40%; Percent Type 1 Diabetes Mellitus incidence (non-obese (NOD)/Lt mice; 0.1 ug/kg p.o., week 25): 40%; Percent Type 1 Diabetes Mellitus incidence (non-obese (NOD)/Lt mice; 0.1 ug/kg p.o., week 26): 40%; Percent Type 1 Diabetes Mellitus incidence (non-obese (NOD)/Lt mice; 0.1 ug/kg p.o., week 27): 40%; mice diabetic by 27 weeks of age (non-obese (NOD)/Lt mice; 0.1 mg/Kg per os 5×/week from 8 to 16 weeks of age): 30%; mice diabetic by 27 weeks of age (non-obese (NOD)/Lt mice; 0.2 mg/Kg per os 5×/week from 8 to 16 weeks of age): 40%; Percent Type 1 Diabetes Mellitus incidence (non-obese (NOD)/Lt mice; 0.2 mg/kg p.o., week 8): 1%; Percent Type 1 Diabetes Mellitus incidence (non-obese (NOD)/Lt mice; 0.2 mg/kg p.o., week 12): 1%; Percent Type 1 Diabetes Mellitus incidence (non-obese (NOD)/Lt mice; 0.2 mg/kg p.o., week 13): 1%; Percent Type 1 Diabetes Mellitus incidence (non-obese (NOD)/Lt mice; 0.2 mg/kg p.o., week 14): 1%; Percent Type 1 Diabetes Mellitus incidence (non-obese (NOD)/Lt mice; 0.2 mg/kg p.o., week 15): 1%; Percent Type 1 Diabetes Mellitus incidence (non-obese (NOD)/Lt mice; 0.2 mg/kg p.o., week 16): 1%; Percent Type 1 Diabetes Mellitus incidence (non-obese (NOD)/Lt mice; 0.2 mg/kg p.o., week 17): 1%; Percent Type 1 Diabetes Mellitus incidence (non-obese (NOD)/Lt mice; 0.2 mg/kg p.o., week 18): 1%; Percent Type 1 Diabetes Mellitus incidence (non-obese (NOD)/Lt mice; 0.2 mg/kg p.o., week 19): 1%; Percent Type 1 Diabetes Mellitus incidence (non-obese (NOD)/Lt mice; 0.2 mg/kg p.o., week 20): 10%; Percent Type 1 Diabetes Mellitus incidence (non-obese (NOD)/Lt mice; 0.2 mg/kg p.o., week 21): 10%; Percent Type 1 Diabetes Mellitus incidence (non-obese (NOD)/Lt mice; 0.2 mg/kg p.o., week 22): 10%; Percent Type 1 Diabetes Mellitus incidence (non-obese (NOD)/Lt mice; 0.2 mg/kg p.o., week 23): 20%; Percent Type 1 Diabetes Mellitus incidence (non-obese (NOD)/Lt mice; 0.2 mg/kg p.o., week 24): 20%; Percent Type 1 Diabetes Mellitus incidence (non-obese (NOD)/Lt mice; 0.2 mg/kg p.o., week 25): 20%; Percent Type 1 Diabetes Mellitus incidence (non-obese (NOD)/Lt mice; 0.2 mg/kg p.o., week 26): 30%; Percent Type 1 Diabetes Mellitus incidence (non-obese (NOD)/Lt mice; 0.2 mg/kg p.o., week 27): 30%; incidence of disease compared to controls (non-obese (NOD)/Lt mice; NOD/Lt female mice, 0.1 or 0.2 mg/Kg per os): significantly lower; effect on body weight (NOD mouse body weight; 0.1 mg/Kg or 0.2 mg/Kg dose): did not affect body weight; NOD mouse body weight (NOD mouse body weight; 0.1 mg/kg p.o., week 8): 22.07 g; NOD mouse body weight (NOD mouse body weight; 0.1 mg/kg p.o., week 9): 22.98 g; NOD mouse body weight (NOD mouse body weight; 0.1 mg/kg p.o., week 10): 22.77 g; NOD mouse body weight (NOD mouse body weight; 0.1 mg/kg p.o., week 11): 23.4 g; NOD mouse body weight (NOD mouse body weight; 0.1 mg/kg p.o., week 12): 24.01 g; NOD mouse body weight (NOD mouse body weight; 0.1 mg/kg p.o., week 13): 23.69 g; NOD mouse body weight (NOD mouse body weight; 0.1 mg/kg p.o., week 14): 24.1 g; NOD mouse body weight (NOD mouse body weight; 0.1 mg/kg p.o., week 15): 24.6 g; NOD mouse body weight (NOD mouse body weight; 0.1 mg/kg p.o., week 16): 25 g; NOD mouse body weight (NOD mouse body weight; 0.1 mg/kg p.o., week 17): 24.6 g; NOD mouse body weight (NOD mouse body weight; 0.1 mg/kg p.o., week 18): 25.1 g; NOD mouse body weight (NOD mouse body weight; 0.1 mg/kg p.o., week 19): 25.6 g; NOD mouse body weight (NOD mouse body weight; 0.1 mg/kg p.o., week 20): 25.2 g; NOD mouse body weight (NOD mouse body weight; 0.1 mg/kg p.o., week 21): 25.6 g; NOD mouse body weight (NOD mouse body weight; 0.1 mg/kg p.o., week 22): 25.8 g; NOD mouse body weight (NOD mouse body weight; 0.1 mg/kg p.o., week 23): 25.5 g; NOD mouse body weight (NOD mouse body weight; 0.1 mg/kg p.o., week 24): 26.8 g; NOD mouse body weight (NOD mouse body weight; 0.1 mg/kg p.o., week 25): 26.4 g; NOD mouse body weight (NOD mouse body weight; 0.1 mg/kg p.o., week 26): 26.7 g; NOD mouse body weight (NOD mouse body weight; 0.1 mg/kg p.o., week 27): 26.5 g; NOD mouse body weight (NOD mouse body weight; 0.2 mg/kg p.o., week 8): 21.25 g; NOD mouse body weight (NOD mouse body weight; 0.2 mg/kg p.o., week 9): 21.75 g; NOD mouse body weight (NOD mouse body weight; 0.2 mg/kg p.o., week 10): 22.06 g; NOD mouse body weight (NOD mouse body weight; 0.2 mg/kg p.o., week 11): 22.99 g; NOD mouse body weight (NOD mouse body weight; 0.2 mg/kg p.o., week 12): 24.21 g; NOD mouse body weight (NOD mouse body weight; 0.2 mg/kg p.o., week 13): 24.4 g; NOD mouse body weight (NOD mouse body weight; 0.2 mg/kg p.o., week 14): 24.34 g; NOD mouse body weight (NOD mouse body weight; 0.2 mg/kg p.o., week 15): 24.53 g; NOD mouse body weight (NOD mouse body weight; 0.2 mg/kg p.o., week 16): 25.01 g; NOD mouse body weight (NOD mouse body weight; 0.2 mg/kg p.o., week 17): 24.33 g; NOD mouse body weight (NOD mouse body weight; 0.2 mg/kg p.o., week 18): 24.89 g; NOD mouse body weight (NOD mouse body weight; 0.2 mg/kg p.o., week 19): 25.29 g; NOD mouse body weight (NOD mouse body weight; 0.2 mg/kg p.o., week 20): 24.9 g; NOD mouse body weight (NOD mouse body weight; 0.2 mg/kg p.o., week 21): 25.41 g; NOD mouse body weight (NOD mouse body weight; 0.2 mg/kg p.o., week 22): 26.36 g; NOD mouse body weight (NOD mouse body weight; 0.2 mg/kg p.o., week 23): 25.8 g; NOD mouse body weight (NOD mouse body weight; 0.2 mg/kg p.o., week 24): 25.63 g; NOD mouse body weight (NOD mouse body weight; 0.2 mg/kg p.o., week 25): 26.12 g; NOD mouse body weight (NOD mouse body weight; 0.2 mg/kg p.o., week 26): 27.15 g; NOD mouse body weight (NOD mouse body weight; 0.2 mg/kg p.o., week 27): 26.56 g
